Assay results published in patent US11873298B2, “Compounds and uses thereof” (JANSSEN PHARMACEUTICA NV, priority 2017, dated 2024).
“And” between values parts separate entries of the source, which are not always exact repeats. Equal values may be shown once.

Tests used:
Format in all cases: cell-based
[1] = target: T1, SCD5 (Homo sapiens, UniProt Q86SK9); test: Growth inhibition of humanized yeast strain expressing SCD5 as sole desaturase; settings: humanized yeast strain expressing SCD5
T1 construct: host or cells: S. cerevisiae ole1Δ strain (W303 pdr1Δ pdr3Δ background), plasmid pRS316 with TDH3 promoter and CYC1 terminator
T1 sequence (Q86SK9 1-330): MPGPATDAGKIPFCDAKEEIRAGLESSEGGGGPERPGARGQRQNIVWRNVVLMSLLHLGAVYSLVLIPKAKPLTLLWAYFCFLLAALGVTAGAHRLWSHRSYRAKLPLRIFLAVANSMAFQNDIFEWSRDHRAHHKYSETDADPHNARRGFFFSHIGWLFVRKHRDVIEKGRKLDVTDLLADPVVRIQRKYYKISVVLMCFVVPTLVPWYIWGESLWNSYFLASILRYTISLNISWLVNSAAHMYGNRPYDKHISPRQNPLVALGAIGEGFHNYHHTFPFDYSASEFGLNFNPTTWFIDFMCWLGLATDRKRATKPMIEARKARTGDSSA
In short: (§1)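 ole1Δ yeast (W303 pdr1Δ pdr3Δ background) carrying plasmid-borne Ole1, SCD1 or SCD5, grown in uracil-free media; cultures pre-grown in raffinose, seeded at 2× density 0.02 in galactose media with compound. Growth read as OD600 after 24 h at 30° C. for Ole1, 40 h for SCD1/SCD5.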

[2] = target: T2, Ole1 (Saccharomyces cerevisiae, UniProt P21147); test: Growth inhibition of yeast strain expressing Ole1 as sole desaturase; settings: yeast strain expressing Ole1 as sole desaturase
T2 construct: expressed in transfected cells; host or cells: S. cerevisiae ole1Δ strain (W303 pdr1Δ pdr3Δ background), plasmid pRS316 with TDH3 promoter and CYC1 terminator
T2 sequence (P21147 1-510): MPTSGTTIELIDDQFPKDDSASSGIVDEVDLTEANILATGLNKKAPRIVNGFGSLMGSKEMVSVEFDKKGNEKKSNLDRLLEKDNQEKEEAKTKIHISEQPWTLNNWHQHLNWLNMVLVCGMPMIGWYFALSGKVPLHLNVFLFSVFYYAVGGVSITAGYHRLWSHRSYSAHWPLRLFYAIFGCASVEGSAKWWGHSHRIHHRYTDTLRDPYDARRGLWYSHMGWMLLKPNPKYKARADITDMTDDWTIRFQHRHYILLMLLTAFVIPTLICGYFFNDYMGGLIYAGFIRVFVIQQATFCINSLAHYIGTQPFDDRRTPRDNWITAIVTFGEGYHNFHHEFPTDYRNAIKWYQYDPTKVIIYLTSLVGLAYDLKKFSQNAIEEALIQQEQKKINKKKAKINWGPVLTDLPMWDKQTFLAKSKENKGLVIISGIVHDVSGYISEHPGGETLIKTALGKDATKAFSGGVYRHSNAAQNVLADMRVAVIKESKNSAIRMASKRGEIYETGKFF
In short: as §1

[3] = target: T3, SCD1 (Homo sapiens, UniProt O00767); test: Growth inhibition of humanized yeast strain expressing SCD1 as sole desaturase; settings: humanized yeast strain expressing SCD1
T3 construct: host or cells: S. cerevisiae ole1Δ strain (W303 pdr1Δ pdr3Δ background), plasmid pRS316 with TDH3 promoter and CYC1 terminator
T3 sequence (O00767 1-359): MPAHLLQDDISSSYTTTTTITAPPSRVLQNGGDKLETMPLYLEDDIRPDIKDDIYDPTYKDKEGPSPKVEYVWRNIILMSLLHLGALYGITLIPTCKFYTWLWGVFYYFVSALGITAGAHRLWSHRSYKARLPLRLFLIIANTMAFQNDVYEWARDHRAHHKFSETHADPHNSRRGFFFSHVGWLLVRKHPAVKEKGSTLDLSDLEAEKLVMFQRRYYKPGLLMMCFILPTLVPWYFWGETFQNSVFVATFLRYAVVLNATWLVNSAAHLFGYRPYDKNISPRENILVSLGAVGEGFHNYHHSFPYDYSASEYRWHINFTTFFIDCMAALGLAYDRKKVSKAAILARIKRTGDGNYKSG
In short: as §1

Structure (SMILES): Cc1nn(C)c2cc(-c3noc(C4CCN(C(=O)CNC(=O)c5ccc(C#N)cc5)CC4)n3)ccc12 [Compound 267]
- IC50 [1]: > 45 µM
- SCD5 % Max Inhibition [1]: 11.33%
- IC50 [2]: > 45 µM
- OLE1 % Max Inhibition [2]: 4.64%
- IC50 [3]: 37.8 µM
- SCD1 % Max Inhibition [3]: 58.58%

Structure (SMILES): COc1ccc(-c2noc(C3CCN(C(=O)C4CC(=O)N(c5cccc(C#N)c5)C4)CC3)n2)cc1OC(C)C (stereo not shown) [Compound 296]
- IC50 [1]: > 45 µM
- SCD5 % Max Inhibition [1]: 22.6%
- IC50 [2]: > 45 µM
- OLE1 % Max Inhibition [2]: 99.1%
- IC50 [3]: > 45 µM
- SCD1 % Max Inhibition [3]: 86.6%

Structure (SMILES): Cc1nn(C)c2cc(-c3noc(C4CCN(C(=O)CN5Cc6ccccc6C5=O)CC4)n3)cnc12 [Compound 200]
- IC50 [1]: 41.1 µM
- SCD5 % Max Inhibition [1]: 64.72%
- IC50 [2]: > 45 µM
- OLE1 % Max Inhibition [2]: 2.69%
- IC50 [3]: > 45 µM
- SCD1 % Max Inhibition [3]: 79.67%

Structure (SMILES): COc1cc(OC)cc(-c2noc(C3CCN(C(=O)CNC(=O)c4ccccc4)CC3)n2)c1 [Compound 187]
- IC50 [1]: > 45 µM
- SCD5 % Max Inhibition [1]: 2.91%
- IC50 [2]: > 45 µM
- OLE1 % Max Inhibition [2]: 97.42%
- IC50 [3]: > 45 µM
- SCD1 % Max Inhibition [3]: 72.13%

Structure (SMILES): Cc1c2ccc(-c3noc(C4CCN(C(=O)CNC(=O)c5ccccc5)CC4)n3)cc2nn1C(C)C [Compound 289]
- IC50 [1]: > 45 µM
- SCD5 % Max Inhibition [1]: 77.71%
- IC50 [2]: > 45 µM
- OLE1 % Max Inhibition [2]: 45.87%
- SCD1 % Max Inhibition [3]: 62.01%

Structure (SMILES): Cc1nn(C)c2cc(-c3noc(N4CCN(C(=O)CN5Cc6ccccc6C5=O)CC4)n3)ccc12 [Compound 219]
- IC50 [1]: > 45 µM
- SCD5 % Max Inhibition [1]: 89.83%
- IC50 [2]: > 45 µM
- OLE1 % Max Inhibition [2]: 3.50%
- IC50 [3]: > 45 µM
- SCD1 % Max Inhibition [3]: 95.22%

Structure (SMILES): Cc1nn(C)c2cc(-c3noc(C4CCN(C(=O)CNC(=O)c5ccc(C(F)(F)F)cc5)CC4)n3)ccc12 [Compound 317]
- IC50 [1]: > 45 µM
- SCD5 % Max Inhibition [1]: 20.6%
- IC50 [2]: > 45 µM
- OLE1 % Max Inhibition [2]: 8.3%
- SCD1 % Max Inhibition [3]: 30.0%

Structure (SMILES): Cc1nn(C)c2cc(-c3noc(C4CCN(C(=O)CNC(=O)c5ccccc5C(F)(F)F)CC4)n3)ccc12 [Compound 271]
- IC50 [1]: > 45 µM
- SCD5 % Max Inhibition [1]: 53.6%
- IC50 [2]: > 45 µM
- OLE1 % Max Inhibition [2]: 11.7%
- SCD1 % Max Inhibition [3]: 67.9%

Structure (SMILES): CCn1nc(C)c2ccc(-c3noc(C4CCN(C(=O)CNC(=O)c5ccccc5)CC4)n3)cc21 [Compound 299]
- IC50 [1]: > 45 µM
- SCD5 % Max Inhibition [1]: 30.1% and 22.61%
- IC50 [2]: > 45 µM
- OLE1 % Max Inhibition [2]: 17.5% and 13.58%
- IC50 [3]: ≥ 45 µM
- SCD1 % Max Inhibition [3]: 89.6% and 62.80%

Structure (SMILES): O=C(C1CC(=O)N(c2ccccc2)C1)N1CCC(c2nc(-c3ccc4c(c3)COC4)no2)CC1 (stereo not shown) [Compound 220]
- IC50 [1]: > 45 µM
- SCD5 % Max Inhibition [1]: 13.65%
- IC50 [2]: > 45 µM
- OLE1 % Max Inhibition [2]: 3.10%
- IC50 [3]: > 45 µM
- SCD1 % Max Inhibition [3]: 87.27%

Structure (SMILES): COc1ccc(-c2noc(CCNC(=O)COc3cc(O)c4c(c3)OC(C)(C)CC4=O)n2)cc1OC [Compound 486]
- IC50 [1]: > 45 µM
- SCD5 % Max Inhibition [1]: 72.76%
- IC50 [2]: > 45 µM
- OLE1 % Max Inhibition [2]: 103.51%
- SCD1 % Max Inhibition [3]: 76.95%

Structure (SMILES): N#Cc1ccc(-c2noc(C3CCN(C(=O)[C@H]4CC(=O)N(c5ccccc5)C4)CC3)n2)s1 [Compound 247]
- IC50 [1]: > 45 µM
- SCD5 % Max Inhibition [1]: 72.46%
- IC50 [2]: > 45 µM
- OLE1 % Max Inhibition [2]: 98.49%
- SCD1 % Max Inhibition [3]: 79.89%

Structure (SMILES): COc1ccc(-c2noc(C3CCN(C(=O)CNCc4ccccc4)CC3)n2)cc1OC [Compound 30]
- IC50 [1]: > 45 µM
- SCD5 % Max Inhibition [1]: 74.17%
- IC50 [2]: > 45 µM
- OLE1 % Max Inhibition [2]: 100.46%
- IC50 [3]: > 45 µM
- SCD1 % Max Inhibition [3]: 80.58%

Structure (SMILES): Cc1nn(C)c2cc(-c3nsc(C4CCN(C(=O)C5CC(=O)N(c6ccccc6)C5)CC4)n3)ccc12 (stereo not shown) [Compound 251]
- IC50 [1]: > 45 µM
- SCD5 % Max Inhibition [1]: 20.59%
- IC50 [2]: > 45 µM
- OLE1 % Max Inhibition [2]: 7.80%
- IC50 [3]: > 45 µM
- SCD1 % Max Inhibition [3]: 83.15%

Structure (SMILES): Cc1ccc(N2C[C@@H](C(=O)N3CCC(c4nc(-c5ccc6c(C)nn(C)c6c5)no4)CC3)CC2=O)nc1 [Compound 302]
- IC50 [1]: > 45 µM
- SCD5 % Max Inhibition [1]: 9.4% and 10.64%
- IC50 [2]: > 45 µM
- OLE1 % Max Inhibition [2]: 6.7% and 5.26%
- IC50 [3]: 36.1 µM and ≥ 45 µM
- SCD1 % Max Inhibition [3]: 71.1% and 50.17%

Structure (SMILES): Cc1nn(C)c2cc(-c3noc(C4CCN(C(=O)c5ccccc5)CC4)n3)ccc12 [Compound 280]
- IC50 [1]: > 45 µM
- SCD5 % Max Inhibition [1]: 8.86%
- IC50 [2]: > 45 µM
- OLE1 % Max Inhibition [2]: 17.18%
- SCD1 % Max Inhibition [3]: 11.48%

Structure (SMILES): CC(C)c1ccc(C(=O)N2CCC(c3nc(N4CC5(COC5)C4)no3)CC2)cc1 [Compound 337]
- IC50 [1]: > 45 µM
- SCD5 % Max Inhibition [1]: 61.6%
- IC50 [2]: > 45 µM
- OLE1 % Max Inhibition [2]: 86.4%
- SCD1 % Max Inhibition [3]: 49.6%

Structure (SMILES): CC(C)c1ccc(C(=O)N2CCC(c3nc(N4CC5(CCCO5)C4)no3)CC2)cc1 [Compound 336]
- IC50 [1]: > 45 µM
- SCD5 % Max Inhibition [1]: 74.1%
- IC50 [2]: > 45 µM
- OLE1 % Max Inhibition [2]: 86.7%
- SCD1 % Max Inhibition [3]: 56.9%

Structure (SMILES): Cc1nn(C)c2cc(-c3noc(C4CCN(C(=O)c5ccccc5C(F)(F)F)CC4)n3)ccc12 [Compound 283]
- IC50 [1]: > 45 µM
- SCD5 % Max Inhibition [1]: 9.83%
- IC50 [2]: > 45 µM
- OLE1 % Max Inhibition [2]: 24.43%
- IC50 [3]: 34.6 µM
- SCD1 % Max Inhibition [3]: 34.91%

Structure (SMILES): CCOc1ccc(-c2noc(N3CCC(C(=O)N4CCO[C@H](c5ccccc5)C4)CC3)n2)cc1OC [Compound 218]
- IC50 [1]: > 45 µM
- SCD5 % Max Inhibition [1]: 25.15%
- IC50 [2]: > 45 µM
- OLE1 % Max Inhibition [2]: 4.63%
- IC50 [3]: > 45 µM
- SCD1 % Max Inhibition [3]: 48.31%

Structure (SMILES): CCN(Cc1nc(-c2ccc(OC)c(OC)c2)no1)C(=O)Cc1cccc2ccccc12 [Compound 157]
- IC50 [1]: > 45 µM
- SCD5 % Max Inhibition [1]: 72.54%
- IC50 [2]: > 45 µM
- OLE1 % Max Inhibition [2]: 91.55%
- IC50 [3]: > 45 µM
- SCD1 % Max Inhibition [3]: 80.54%
